# Data from patent EP0205068B1, “Lysergic-acid amides, process for their preparation and medicaments containing them” (ARZNEIMITTELWERK DRESDEN GmbH, priority 1985, dated 1986).
# Several values for one entry are separate records, joined by “and”; a condition that tells them apart may be missing. Equal values may be shown once.
# Key:
# [1] = test system: Maus; assay: Porsolt swim test (immobility duration); assay type: in vivo
# [2] = test system: Vena femoralis; assay: Contraction of isolated human vessel preparations, vein; design: species or system menschlichen
# From the text: (§1) 6. Untersuchungen an isolierten menschlichen Gefäßpräparaten
# (§2) (Vena und Arteria femoralis)
# (§3) Glusa, E. und F. Markwardt, Pharmacolgy 24 (1982) 287 sowie Naunyn-Schmiedebergs-Arch. Pharmacol. 323 (1983) 101
# [3] = test system: Ratten; assay: SFT test (spinal cord fixation time); assay type: in vivo
# From the text: 4. SFT-Test (Spinal cord fixation time)
# C.Giurgea und F.Mouravieff-Lesmisse Arch.Intern.Pharmacodyn.191 (1971) 279
# Es ist die Anzahl der Tiere mit persistierender Asymmetrie zur Gesamtzahl der eingesetzten Ratten aufgeführt.
# [4] = test system: transcallosal ausgelöster Potentiale; assay: Influence on transcallosally evoked potentials in awake rats fixed in a stereotactic apparatus; assay type: in vivo, weiblichen Wistarratten; settings: 1 mg/kg i.p.
# From the text: 3. Beeinflussung transcallosal ausgelöster Potentiale
# Methodik in Anlehnung an C.Giurgea und F.Moyersoons, Arch.Int.Pharmacodyn.199,(1972) 67
# Die Untersuchung wurde an wachen, im stereotaktischen Apparat fixierten weiblichen Wistarratten durchgeführt.
# [5] = test system: vas deferens des Meerschweinchens; assay: Noradrenaline antagonism on isolated vas deferens; settings: Cavia porcellus, read-out: Hemmung (x̄ ± sx̄) in %
# From the text: 5. Noradrenalin-Antagonismus
# Noradrenalin-Antagonismus am vas deferens des Meerschweinchens
# [6] = test system: Arteria femoralis; assay: Contraction of isolated human vessel preparations, artery; design: species or system menschlichen
# From the text: as §1, §2, §3
Compound,Immobilitätsdauer (sec) x̄ ± sx̄ ([1]; 1 mg/kg i.p.),Amplitudenbeeinflussung b.max.Reizintensität neg.Welle ([4]; 60'),Amplitudenbeeinflussung b.max.Reizintensität pos.Welle ([4]; 60'),Amplitudenbeeinflussung b.mittl.Reizintensität neg.Welle ([4]; 60'),Amplitudenbeeinflussung b.mittl.Reizintensität pos.Welle ([4]; 60'),Amplitudenbeeinflussung b.max.Reizintensität neg.Welle ([4]; 120'),Amplitudenbeeinflussung b.max.Reizintensität pos.Welle ([4]; 120'),Amplitudenbeeinflussung b.mittl.Reizintensität neg.Welle ([4]; 120'),Amplitudenbeeinflussung b.mittl.Reizintensität pos.Welle ([4]; 120'),Amplitudenbeeinflussung b.max.Reizintensität neg.Welle ([4]; 180'),Amplitudenbeeinflussung b.max.Reizintensität pos.Welle ([4]; 180'),Amplitudenbeeinflussung b.mittl.Reizintensität neg.Welle ([4]; 180'),Amplitudenbeeinflussung b.mittl.Reizintensität pos.Welle ([4]; 180'),Amplitudenbeeinflussung b.max.Reizintensität neg.Welle ([4]; VW = Vorwert (pre-dose value)),Amplitudenbeeinflussung b.max.Reizintensität pos.Welle ([4]; VW = Vorwert (pre-dose value)),Amplitudenbeeinflussung b.mittl.Reizintensität neg.Welle ([4]; VW = Vorwert (pre-dose value)),Amplitudenbeeinflussung b.mittl.Reizintensität pos.Welle ([4]; VW = Vorwert (pre-dose value)),Immobilitätsdauer (sec) x̄ ± sx̄ ([1]; 3 mg/kg p.o.),further results
"CC(=O)OCCN(CCOC(C)=O)C(=O)[C@@H]1C[C@@H]2c3cccc4[nH]cc(c34)C[C@H]2N(C)C1 [1 a, 9,10-Dihydrolysergsäure-bis-(β-acetoxyethyl)amid]","202,6 ± 1,8 sec","0,40±0,03 µV","0,42±0,03 µV","0,23±0,03 µV","*0,26±0,03 µV","*0,40±0,02 µV","0,41±0,02 µV","*0,25±0,03 µV","*0,27±0,03 µV","0,39±0,02 µV","0,42±0,02 µV","0,23±0,03 µV","*0,25±0,02 µV","0,34±0,03 µV","0,38±0,03 µV","0,18±0,02 µV","0,19±0,02 µV",,pharmakologisch wertvolle Nebenwirkungen ([2]; statement in words): Tonisierung der Venen; Anzahl der Tiere mit persistierender Asymmetrie zur Gesamtzahl der eingesetzten Ratten ([3]; Dosis ip. 2 mg/kg): 5/10; inhibition at 10 µM ([5]; Konzentration 10^-5 mol/l): 60.7%; inhibition at 1 µM ([5]; Konzentration 10^-6 mol/l): 14.7%; inhibition at 0.1 µM ([5]; Konzentration 10^-7 mol/l): 4.4%
"CC(=O)OCCN(CCOC(C)=O)C(=O)[C@@H]1C[C@@H]2c3cccc4c3c(cn4C)C[C@H]2N(C)C1 [1 c, 1-Methyl-9,10-dihydrolysergsäure-bis-(ß-acetoxyethyl)-amid]",,,,,,,,,,,,,,,,,,"203,6 ± 5,9 sec",
"CCC(=O)OCCN(CCOC(=O)CC)C(=O)[C@@H]1C[C@@H]2c3cccc4c3c(cn4C)C[C@H]2N(C)C1 [1 e, 1-Methyl-9,10-dihydrolysergsäure-bis-(ß-propionylethyl)-amid]",,,,,,,,,,,,,,,,,,"210,0 ± 3,8 sec",
"CC(=O)OCCN(CCOC(C)=O)C(=O)[C@@H]1C[C@@H]2c3cccc4c3c(cn4Cc3cccc(F)c3)C[C@H]2N(C)C1 [1 l, 1-(3'-Fluorbenzyl)-9,10-dihydrolysergsäure-bis-(ß-acetoxyethyl)-amid]","199,4 ± 2,3 sec",,,,,,,,,,,,,,,,,,
CN1C[C@H](C(=O)N[C@]2(C)O[C@@]3(O)[C@@H]4CCCN4C(=O)[C@H](Cc4ccccc4)N3C2=O)C[C@@H]2c3cccc4[nH]cc(c34)C[C@H]21 [Dihydro-ergo-tamin],,,,,,,,,,,,,,,,,,,"%-Kontraktion bezogen auf NA [6]: 8,8 ± 8%; %-Kontraktion bezogen auf NA [2]: 61 ± 24% and 52 ± 18%"
"CO[C@]12C[C@@H](COC(=O)c3cncc(Br)c3)CN(C)[C@@H]1Cc1cn(C)c3cccc2c13 [Nicergolin, 10a-Methoxy-1,6-dimethyl-ergolin-8ß-methanol-(5'-bromnicotinat), reference compound]","196,7 ± 5,6 sec","0,41±0,03 µV","0,40±0,02 µV","0,24±0,02 µV","0,24±0,01 µV","0,38±0,02 µV","0,36±0,02 µV","0,23±0,02 µV","0,22±0,02 µV","0,39±0,04 µV","0,39±0,04 µV","0,21±0,01 µV","0,19±0,02 µV","0,39±0,02 µV","0,39±0,02 µV","0,23±0,02 µV","0,23±0,02 µV",,Anzahl der Tiere mit persistierender Asymmetrie zur Gesamtzahl der eingesetzten Ratten ([3]; Dosis ip. 1 mg/kg): 2/10; Anzahl der Tiere mit persistierender Asymmetrie zur Gesamtzahl der eingesetzten Ratten ([3]; Dosis ip. 3 mg/kg): 4/6
